Data taken from patent US6653081B2, “Methods for monitoring antiretroviral therapy and guiding therapeutic decision in the treatment of HIV/AIDS” (ViroLogic, Inc., priority 2000, dated 2003).
“Also recorded” adds a separate entry of the source.

How the values were obtained:
[1] = tested on: RTV-1033-3/227F; assay: Phenotypic susceptibility assay, RTV-1033-3/227F; assay type: cell-based, HIV; conditions: RTV-1033-3 with F227L reverted
Text: (§1) The resistance test vectors containing a functional luciferase gene cassette were constructed and host cells were transfected with the resistance test vector DNA. The resistant test vectors contained patient-derived reverse transcriptase and protease sequences that were either susceptible or resistant to the antiretroviral agents, such as nucleoside reverse transcriptase inhibitors, (NRTIs) non-nucleoside reverse transcriptase inhibitors […] protease inhibitors. The resistance test vector viral particles produced by transfecting the resistance test vector DNA into host cells, either in the presence or absence of PRIs, were used to infect target host cells grown either in the absence of NRTIs or NNRTIs, or in the presence of increasing concentrations of the drug. The amount of luciferase activity produced in infected target host cells in the presence of varying concentrations of drug was compared to the amount of luciferase produced in infected target host cells in the absence of drug. “Drug resistance” was measured as the amount of drug required to inhibit by 50% the luciferase activity detected in the absence of drug (inhibitory concentration 50%, IC50). The IC50 values were determined by plotting percent drug inhibition vs. log10 drug concentration. Stimulation of viral replication was measured as the percent increase in luciferase activity detected when infection occurs in the presence of drug as compared to in the absence of drug.
(§2) Host cells were seeded in 10-cm-diameter dishes and were transfected several days after plating with resistance test vector plasmid DNA and the envelope expression vector. Transfections were performed using a calcium-phosphate precipitation procedure. The cell culture media containing the DNA precipitate was replaced with fresh medium, from one to 24 hours, after transfection. Cell culture media containing resistance test vector viral particles was harvested one to four days after transfection and was passed through a […] filter before being used to infect target host cells, or being stored at −80° C. HIV capsid protein (p24) levels in the harvested cell culture media were determined by an EIA method as described by the manufacturer (SAIC; Frederick, Md.). Before infection, target cells (293 and 293/T) were plated in cell culture media. Control infections were performed using cell culture media from mock transfections (no DNA) or transfections containing the resistance test vector plasmid DNA without the envelope expression plasmid. One to three or more days after infection, the media was removed and cell lysis buffer (Promega) was added to each well. Cell lysates were assayed for luciferase activity (FIG. 3). The inhibitory effect of the drug was determined using the following equation:
(§3) % luciferase inhibition=1−(RLUluc[drug]÷RLUluc)×100
(§4) where RLUluc [drug] is the Relative Light Unit of luciferase activity in infected cells in the presence of drug, and RLUluc is the Relative Light Unit of luciferase activity in infected cells in the absence of drug. IC50values were obtained from the sigmoidal curves that were generated from the data by plotting the percent inhibition of luciferase activity vs. the log10 drug concentration. The percent luciferase stimulation is the negative of the % inhibition calculated using the formula above.
A resistance test vector containing all of the mutations present in RTV-1033-3 except for F227L (RTV-1033-3/227F) was constructed and tested using the phenotypic assay described earlier. The results were compared to those determined using the parent RTV-1033-3. We determined the pattern of phenotypic susceptibility to the NNRTIs, delavirdine, nevirapine and efavirenz, in the reverted vector, RTV-1033-3/227F.

[2] = tested on: RTV-011073/241V; assay: Phenotypic susceptibility assay, RTV-011073/241V; assay type: cell-based, HIV; conditions: RTV-011073 with V241S reverted
Text: as §1, §2, §3, §4
A resistance test vector containing all of the mutations present in RTV-011073 except for the V241S and the T277K was constructed and tested using the phenotypic assay described earlier. The results were compared to those determined using the parent RTV-011073. We determined the pattern of phenotypic susceptibility to the NNRTIs, delavirdine, nevirapine and efavirenz, in the reverted vector RTV-011073/241V/277T. […] A resistance test vector containing all of the mutations present in RTV-011073 except for the V241S was constructed and tested using the phenotypic assay described earlier. The results were compared to those determined using the parent RTV-011073. […]

[3] = tested on: RTV-V245T; assay: Phenotypic susceptibility assay, RTV-V245T; assay type: cell-based, HIV-1; conditions: site-directed V245T alone
Text: as §1, §2, §3, §4
(§5) A resistance test vector containing a single mutation, V245T, (RTV-V245T) was constructed and tested in the phenotypic assay described earlier. The results were compared to those determined using a genetically defined resistance test vector that was wild type at position 245. We determined the pattern of phenotypic susceptibility to the NNRTIs, delavirdine, nevirapine and efavirenz, in RTV-V245E.

[4] = tested on: RTV-1046 and RTV-887; assay: Phenotypic susceptibility assay, RTV-1046 and RTV-887; assay type: cell-based, HIV; conditions: patient ARG-014, weeks 8 and 16; Y181C and M230L present
Text: The resistance test vectors containing a functional luciferase gene cassette were constructed and host cells were transfected with the resistance test vector DNA. The resistant test vectors contained patient-derived reverse transcriptase and protease sequences that were either susceptible or resistant to the antiretroviral agents, such as nucleoside reverse transcriptase inhibitors, (NRTIs) non-nucleoside reverse transcriptase inhibitors […] protease inhibitors. The resistance test vector viral particles produced by transfecting the resistance test vector DNA into host cells, either in the presence or absence of PRIs, were used to infect target host cells grown either in the absence of NRTIs or NNRTIs, or in the presence of increasing concentrations of the drug. The amount of luciferase activity produced in infected target host cells in the presence of varying concentrations of drug was compared to the amount of luciferase produced in infected target host cells in the absence of drug. […] The IC50 values were determined by plotting percent drug inhibition vs. log10 drug concentration. Stimulation of viral replication was measured as the percent increase in luciferase activity detected when infection occurs in the presence of drug as compared to in the absence of drug.
Host cells were seeded in 10-cm-diameter dishes and were transfected several days after plating with resistance test vector plasmid DNA and the envelope expression vector. […] HIV capsid protein (p24) levels in the harvested cell culture media were determined by an EIA method as described by the manufacturer (SAIC; Frederick, Md.). […] The inhibitory effect of the drug was determined using the following equation: […]
where RLUluc [drug] is the Relative Light Unit of luciferase activity in infected cells in the presence of drug, and RLUluc is the Relative Light Unit of luciferase activity in infected cells in the absence of drug. […] The percent luciferase stimulation is the negative of the % inhibition calculated using the formula above. […]

[5] = tested on: RTV-I135T/V245T; assay: Phenotypic susceptibility assay, RTV-I135T/V245T; assay type: cell-based, HIV-1; conditions: site-directed I135T + V245T
Text: as §1, §2, §3, §4
as §5, with “two mutations, I135T and V245T (RTV-I135T/V245T)” for “a single mutation, V245T, (RTV-V245T)”, “positions 135 and” for “position”, “RTV-I135T/V245T.” for “RTV-V245E.”

[6] = tested on: RTV-013522/270I; assay: Phenotypic susceptibility assay, RTV-013522/270I; assay type: cell-based, HIV; conditions: RTV-013522 with I270S reverted
Text: as §1, §2, §3, §4
A resistance test vector containing all of the mutations present in […] except for the I270S (RTV-013522/270I) was constructed and tested using the phenotypic assay described earlier. The results were compared to those determined using the parent RTV-013522. We determined the pattern of phenotypic susceptibility to the NNRTIs, delavirdine, nevirapine and efavirenz, in the reverted vector RTV-013522/270I. […] In this patient sample the correlation of drug-dependent stimulation of viral replication with the mutation at I270S is very striking. […]

Structure (SMILES): O=C1Nc2ccc(Cl)cc2[C@@](C#CC2CC2)(C(F)(F)F)O1 [efavirenz]
- drug-dependent stimulation of viral replication [1]: ~100%
- reductions in susceptibility compared to wild type control RTV [1]: 18 fold
- drug-dependent stimulation of viral replication [2]: no longer negative inhibition
- reductions in susceptibility compared to wild type control RTV [2]: 54 fold
- drug-dependent stimulation of viral replication [3]: no drug-dependent stimulation
- reductions in susceptibility compared to wild type control RTV [3]: no reductions; also recorded: no significant reduction
- decrease in susceptibility [4]: 5 fold
- drug-dependent stimulation of viral replication [5]: no drug-dependent stimulation
- reductions in susceptibility compared to wild type control RTV [5]: 2.4 fold
- drug-dependent stimulation of viral replication [6]: no longer exhibiting negative inhibition
- reductions in susceptibility compared to wild type control RTV [6]: 8 fold

Structure (SMILES): CC(C)Nc1cccnc1N1CCN(C(=O)c2cc3cc(NS(C)(=O)=O)ccc3[nH]2)CC1 [delavirdine]
- drug-dependent stimulation of viral replication [1]: ~100%
- reductions in susceptibility compared to wild type control RTV [1]: 72 fold
- drug-dependent stimulation of viral replication [2]: no longer negative inhibition
- reductions in susceptibility compared to wild type control RTV [2]: 59 fold
- drug-dependent stimulation of viral replication [3]: no drug-dependent stimulation
- reductions in susceptibility compared to wild type control RTV [3]: no reductions; also recorded: no significant reduction
- decrease in susceptibility [4]: > 250 fold
- drug-dependent stimulation of viral replication [5]: ~10%
- reductions in susceptibility compared to wild type control RTV [5]: 2.5 fold
- drug-dependent stimulation of viral replication [6]: no longer exhibiting negative inhibition
- reductions in susceptibility compared to wild type control RTV [6]: 40 fold

Structure (SMILES): Cc1ccnc2c1NC(=O)c1cccnc1N2C1CC1 [nevirapine]
- drug-dependent stimulation of viral replication [1]: ~120%
- reductions in susceptibility compared to wild type control RTV [1]: > 600 fold
- drug-dependent stimulation of viral replication [2]: no longer negative inhibition
- reductions in susceptibility compared to wild type control RTV [2]: 146 fold
- drug-dependent stimulation of viral replication [3]: no drug-dependent stimulation
- reductions in susceptibility compared to wild type control RTV [3]: no reductions; also recorded: no significant reduction
- decrease in susceptibility [4]: > 600 fold
- drug-dependent stimulation of viral replication [5]: ~10%
- reductions in susceptibility compared to wild type control RTV [5]: 4 fold
- drug-dependent stimulation of viral replication [6]: no longer exhibiting negative inhibition
- reductions in susceptibility compared to wild type control RTV [6]: 14 fold
